According to patent publication US20090136448A1, “Antiviral 2-Carboxy-Thiophene Compounds” (priority 2005, published 2009):

What was measured:
[1] = tested on: HCV replication, genotype 1a (Huh-7 HCV replicon cell); experiment: Replicon ELISA cell based assay, genotype 1a; conditions: Hepatitis C virus, Huh-7 HCV replicon cells, 72 hours, mean, assayed at least twice
Description: (§1) Replicon ELISA Cell Based Assay
(§2) 100 μL of medium containing 10% FCS were added to each well of clear, flat-bottomed 96 well microplates, excepting wells in the top row. Test compound was diluted in assay medium to twice the final required starting concentration from a 40 mM stock solution in DMSO. 200 μL of the starting dilution were introduced into two wells each in the top row and doubling dilutions made down the plate by the sequential transfer of 100 μL aliquots with thorough mixing in the wells; the final 100 μL were discarded. The two bottom rows were not used for compound dilutions. Huh-7 HCV replicon cell monolayers nearing confluency were stripped from growth flasks with versene-trypsin solution and the cells were resuspended in assay medium at either 2×10^5 cells/mL (sub-line 5-15; genotype 1b; Lohmann, V., Korner, F., Koch, J-O., Herian, U., Thielmann, L. and Bartenschlager, R., Science, 1999, 285, 110-113) or at 3×10^5 cells/mL (genotype 1a; Gu, B., Gates, A. T., Isken, O., Behrens, S. E. and Sarisky, R. T., J. Virol., 2003, 77, 5352-5359). 100 μL of cell suspension were added to all wells and the plates incubated at 37° C. for 72 hours in a 5% CO2 atmosphere.
(§3) Following incubation, the assay medium was aspirated from the plates. The cell sheets were washed by gentle immersion in phosphate buffered saline (PBS), which was then aspirated off, and fixed with acetone:methanol (1:1) for 5 minutes. Following a further wash with PBS, 100 μL of ELISA diluent (PBS+0.05% v/v Tween 20+2% w/v skimmed milk powder) were added to all wells and the plates incubated at 37° C. for 30 minutes on an orbital platform. The diluent was removed and each well then received 50 μL of a 1/200 dilution of anti-HCV specific, murine, monoclonal antibody (either Virostat #1872 or #1877), except for wells in one of the compound-free control rows which received diluent alone to act as negative controls. The plates were incubated at 37° C. for 2 hours and washed 3 times with PBS/0.05% Tween 20, then 50 μL of horseradish peroxidase conjugated, anti-mouse, rabbit polyclonal serum (Dako #P0260), diluted 1/1000, were added to all wells. The plates were incubated for a further hour, the antibody removed and the cell sheets washed 5 times with PBS/Tween and blotted dry. The assay was developed by the addition of 50 μL of ortho-phenylenediamine/peroxidase substrate in urea/citrate buffer (SigmaFast, Sigma #P-9187) to each well, and colour allowed to develop for up to 15 minutes. The reaction was stopped by the addition of 25 μL per well of 2 M sulphuric acid and the plates were read at 490 nm on a Fluostar Optima spectrophotometer.
(§4) The substrate solution was removed and the plates were washed in tap water, blotted dry and the cells stained with 5% carbol fuchsin in water for 30 minutes. The stain was discarded and the cell sheets washed, dried and examined microscopically to assess cytotoxicity.
(§5) The absorbance values from all compound-free wells that had received both primary and secondary antibodies were averaged to obtain a positive control value. The mean absorbance value from the compound-free wells that had not received the primary antibody was used to provide the negative (background) control value. The readings from the duplicate wells at each compound concentration were averaged and, after the subtraction of the mean background from all values, were expressed as a percentage of the positive control signal. The quantifiable and specific reduction of expressed protein detected by the ELISA in the presence of a drug can be used as a measure of replicon inhibition. GraFit software (Erithacus Software Ltd.) was used to plot the curve of percentage inhibition against compound concentration and derive the 50% inhibitory concentration (IC50) for the compound.

[2] = tested on: HCV replication, genotype 1b (Huh-7 HCV replicon cell, sub-line 5-15); experiment: Replicon ELISA cell based assay, genotype 1b; conditions: Hepatitis C virus, Huh-7 HCV replicon cells, genotype 1b (sub-line 5-15), 72 hours, mean, assayed at least twice
Description: as §1, §2, §3, §4, §5

| Compound | IC50 [1] | IC50 [2] |
| --- | --- | --- |
| CC(C)N(c1cc(-c2ccc(-c3cc4cnccc4o3)cc2)sc1C(=O)O)C(=O)[C@H]1CC[C@H](C)CC1 [Example 13, Sodium 5-(4-furo[3,2-c]pyridin-2-ylphenyl)-3-[[(trans-4-methylcyclohexyl)carbonyl](1-methylethyl)amino]-2-thiophenecarboxylate] | 100 to 500 nM | 100 to 500 nM |
| CC(C)N(c1cc(-c2ccc(-c3cc4cnccc4o3)cc2)sc1C(=O)O)C(=O)[C@H]1CC[C@H](C)CC1 [Example 12, 5-(4-Furo[3,2-c]pyridin-2-ylphenyl)-3-[[(trans-4-methylcyclohexyl)carbonyl](1-methylethyl)amino]-2-thiophenecarboxylic acid] | 100 to 500 nM | 50 to 100 nM |
| Cc1ccn2nc(-c3ccc(-c4cc(N(C(=O)[C@H]5CC[C@H](C)CC5)C(C)C)c(C(=O)O)s4)cc3)cc2n1 [Example 6, 3-[[(trans-4-Methylcyclohexyl)carbonyl](1-methylethyl)amino]-5[4-(5-methylpyrazolo[1,5-a]pyrimidin-2-yl)phenyl]-2-thiophenecarboxylic acid] | 50 to 100 nM | 10 to 50 nM |
| CC(C)N(c1cc(-c2ccc(-c3nc4ccc(N)cc4o3)cc2)sc1C(=O)O)C(=O)[C@H]1CC[C@H](C)CC1 [Example 23, 5-[4-(6-Amino-1,3-benzoxazol-2-yl)phenyl]-3-[[(trans-4-methylcyclohexyl)carbonyl](1-methylethyl)amino]-2-thiophenecarboxylic acid] | 50 to 100 nM | 10 to 50 nM |
| Cc1cc(N)n2nc(-c3ccc(-c4cc(N(C(=O)[C@H]5CC[C@H](C)CC5)C(C)C)c(C(=O)O)s4)cc3)cc2n1 [Example 5, 5-[4-(7-Amino-5-methylpyrazolo[1,5-a]pyrimidin-2-yl)phenyl]-3-[[(trans-4-methylcyclohexyl)carbonyl](1-methylethyl)amino]-2-thiophenecarboxylic acid] | < 5 nM | < 5 nM |
| CC(C)N(c1cc(-c2ccc(-c3cc4nccc(N)n4n3)c(Cl)c2)sc1C(=O)O)C(=O)[C@H]1CC[C@H](C)CC1 [Example 33, 5-[4-(7-Aminopyrazolo[1,5-a]pyrimidin-2-yl)-3-chlorophenyl]-3-[[(trans-4-methylcyclohexyl)carbonyl](1-methylethyl)amino]-2-thiophenecarboxylic acid] | < 5 nM | < 5 nM |
| CC(C)N(c1cc(-c2ccc(-c3cn4cc(N)ccc4n3)cc2)sc1C(=O)O)C(=O)[C@H]1CC[C@H](C)CC1 [Example 27, 5-[4-(6-Aminoimidazo[1,2-a]pyridin-2-yl)phenyl]-3-[[(trans-4-methylcyclohexyl)carbonyl](1-methylethyl)amino]-2-thiophenecarboxylic acid] | 100 to 500 nM | 100 to 500 nM |
| CC(C)N(c1cc(-c2ccc(-c3cc4cccnn4n3)cc2)sc1C(=O)O)C(=O)[C@H]1CC[C@H](C)CC1 [Example 24, 3-[[(trans-4-Methylcyclohexyl)carbonyl](1-methylethyl)amino]-5-(4-pyrazolo[1,5-b]pyridazin-2-ylphenyl)-2-thiophenecarboxylic acid] | 100 to 500 nM | 10 to 50 nM |
| CC(C)N(c1cc(-c2ccc(-c3nc4cccnc4o3)cc2)sc1C(=O)O)C(=O)[C@H]1CC[C@H](C)CC1 [Example 11, 3-[[(4-Methylcyclohexyl)carbonyl](1-methylethyl)amino]-5-(4-[1,3]oxazolo[5,4-b]pyridin-2-ylphenyl)-2-thiophenecarboxylic acid] | 100 to 500 nM | 100 to 500 nM |
| CC(C)N(c1cc(-c2ccc(-c3cc4ncccc4o3)nc2)sc1C(=O)O)C(=O)[C@H]1CC[C@H](C)CC1 [Example 18, 5-(6-Furo[3,2-b]pyridin-2-yl-3-pyridinyl)-3-[[(trans-4-methylcyclohexyl)carbonyl](1-methylethyl)amino]-2-thiophenecarboxylic acid] | 50 to 100 nM | 10 to 50 nM |
| CC(C)N(c1cc(-c2ccc(-c3cc4ncccn4n3)nc2)sc1C(=O)O)C(=O)[C@H]1CC[C@H](C)CC1 [Example 34, 3-[[(trans-4-Methylcyclohexyl)carbonyl](1-methylethyl)amino]-5-(6-pyrazolo[1,5-a]pyrimidin-2-yl-3-pyridinyl)-2-thiophenecarboxylic acid] | 10 to 50 nM | 50 to 100 nM |
| CCN(c1cc(-c2ccc(-c3cc4ncccn4n3)cc2)sc1C(=O)O)C(=O)[C@H]1CC[C@H](C)CC1 [Example 40, Ammonium 3-{ethyl[(trans-4-methylcyclohexyl)carbonyl]amino}-5-(4-pyrazolo[1,5-a]pyrimidin-2-ylphenyl)-2-thiophenecarboxylate] | 100 to 500 nM | 5 to 10 nM |
| CC(C)N(c1cc(-c2ccc(-c3ccc4cc[nH]c4c3)cc2)sc1C(=O)O)C(=O)[C@H]1CC[C@H](C)CC1 [Example 42, 5-[4-(1H-Indol-6-yl)phenyl]-3-[[(trans-4-methylcyclohexyl)carbonyl](1-methylethyl)amino]-2-thiophenecarboxylic acid] | 100 to 500 nM | 10 to 50 nM |
| CC(C)N(c1cc(-c2ccc(-c3cn4ccsc4n3)nc2)sc1C(=O)O)C(=O)[C@H]1CC[C@H](C)CC1 [Example 32, 5-(6-Imidazo[2,1-b][1,3]thiazol-6-yl-3-pyridinyl)-3-[[(trans-4-methylcyclohexyl)carbonyl](1-methylethyl)amino]-2-thiophenecarboxylic acid] | 100 to 500 nM | 50 to 100 nM |
| CC(C)N(c1cc(-c2ccc(-c3cn4ccsc4n3)cc2)sc1C(=O)O)C(=O)[C@H]1CC[C@H](C)CC1 [Example 4, 5-(4-Imidazo[2,1-b][1,3]thiazol-6-ylphenyl)-3-[[(trans-4-methylcyclohexyl)carbonyl](1-methylethyl)amino]-2-thiophenecarboxylic acid] | 50 to 100 nM | 10 to 50 nM |
| CC(C)N(c1cc(-c2ccc(-c3cn4ccccc4n3)cc2)sc1C(=O)O)C(=O)[C@H]1CC[C@H](C(F)(F)F)CC1 [Example 14, 5-(4-Imidazo[1,2-a]pyridin-2-ylphenyl)-3-((1-methylethyl){[trans-4-(trifluoromethyl)cyclohexyl]carbonyl}amino)-2-thiophenecarboxylic acid] | 100 to 500 nM | 500 to 1000 nM |
| CC(C)N(c1cc(-c2ccc(-c3cc4ncccc4o3)cc2)sc1C(=O)O)C(=O)[C@H]1CC[C@H](C(F)(F)F)CC1 [Example 22, 5-(4-Furo[3,2-b]pyridin-2-ylphenyl)-3-((1-methylethyl){[trans-4-(trifluoromethyl)cyclohexyl]carbonyl}amino)-2-thiophenecarboxylic acid] | 50 to 100 nM | 50 to 100 nM |
| CC(C)N(c1cc(-c2ccc(-c3nc4cc(N)ccc4o3)cc2)sc1C(=O)O)C(=O)[C@H]1CC[C@H](C)CC1 [Example 10, 5-[4-(5-Amino-1,3-benzoxazol-2-yl)phenyl]-3-[[(trans-4-methylcyclohexyl)carbonyl](1-methylethyl)amino]-2-thiophenecarboxylic acid] | 50 to 100 nM | 100 to 500 nM |
| CC(C)N(c1cc(-c2ccc(-c3cc4ncccc4o3)cc2)sc1C(=O)O)C(=O)[C@H]1CC[C@H](C)CC1 [Example 1, 5-(4-Furo[3,2-b]pyridin-2-ylphenyl)-3-[[(trans-4-methylcyclohexyl)carbonyl](1-methylethyl)amino]-2-thiophenecarboxylic acid] | 10 to 50 nM | 10 to 50 nM |
| CC(C)N(c1cc(-c2ccc(-c3ccn4nccc4n3)cc2)sc1C(=O)O)C(=O)[C@H]1CC[C@H](C)CC1 [Example 17, 3-[[(trans-4-Methylcyclohexyl)carbonyl](1-methylethyl)amino]-5-(4-pyrazolo[1,5-a]pyrimidin-5-ylphenyl)-2-thiophenecarboxylic acid] | 100 to 500 nM | 100 to 500 nM |
